Patent publication US6784201B2, “Benzothiepines having activity as inhibitors of ileal bile acid transport and taurocholate uptake” (G.D. Searle & Company, priority 1994, dated 2004)

Legend:
Hepatic Cholesterol [1] = experiment: Hepatic cholesterol concentration, cholesterol-fed hamsters; format: in vivo, hamster; conditions: 0.2% Cpd. No. 25, mean (SEM)
Description: (§1) Measurement of Hepatic Cholesterol Concentration (Hepatic CHOL)
(§2) Liver tissue was weighed and homogenized in chloroform:methanol (2:1). After homogenization and centrifugation the supernatant was separated and dried under nitrogen. The residue was dissolved in isopropanol and the cholesterol content was measured enzymatically, using a combination of cholesterol oxidase and peroxidase, as described by Allain, C. A., et al. (1974) Clin. Chem. 20, 470.

Hepatic Cholesterol [2] = experiment: Hepatic cholesterol concentration, rat Alzet minipump model; format: in vivo; conditions: 20 MPL/DAY, mean (SEM)
Description: as §1, §2

[3] = Rat Alzet minipump model: body, liver and fecal weight; format: in vivo; conditions: 20 MPL/DAY, mean (SEM)
Fecal Bile Acid [4] = experiment: Fecal bile acid concentration (FBA), cholesterol-fed hamsters; format: in vivo, hamster; conditions: 0.2% Cpd. No. 25, mean (SEM)
Description: (§3) Measurement of Fecal Bile Acid Concentration (FBA)
(§4) Total fecal output from individually housed hamsters was collected for 24 or 48 hours, dried under a stream of nitrogen, pulverized and weighed. Approximately 0.1 gram was weighed out and extracted into an organic solvent (butanol/water). Following separation and drying, the residue was dissolved in methanol and the amount of bile acid present was measured enzymatically using the 3α-hydroxysteroid steroid dehydrogenase reaction with bile acids to reduce NAD. (Reference: Mashige, F., et al. (1981) Clin. Chem. 27, 1352).

[5] = Efficacy in cholesterol-fed hamsters: body, liver and fecal weight; format: in vivo, hamster; conditions: 0.2% Cpd. No. 25, mean (SEM)
[6] = system: Rabbit Ileal brush border membranes; experiment: [3H]taurocholate uptake in rabbit brush border membrane vesicles (BBMV); format: biochemical; conditions: read-out: TC-uptake (BBMV) IC(50)
Description: [^3H]Taurocholate Uptake in Rabbit Brush Border Membrane Vesicles (BBMV)
Rabbit Ileal brush border membranes were prepared from frozen iheal mucosa by the calcium precipitation method describe by Malathi et al. (Reference: (1979) Biochimica Biophysica Acta, 554, 259). The method for measuring taurocholate was essentially as described by Kramer et al. (Reference: (1992) Biochimica Biophysica Acta, 1111, 93) except the assay volume was 200 μl instead of 100 μl.

[7] = system: Rat Ileal Uptake of [14C]-Taurocholate; experiment: In vivo assay of rat ileal uptake of [14C]-taurocholate into bile (ileal loop)
Description: In Vivo Assay of Compounds that Inhibit Rat Ileal Uptake of [^14C]-Taurocholate into Bile
(See “Metabolism of 3α,7β-dihydroxy-7α-methyl-5β-cholanoic acid and 3α,7β-dihydroxy-7α-methyl-5β-cholanoic acid in hamsters” in Biochimica et Biophysica Acta 833 (1985) 196-202 by Une et al.)
Male wistar rats (200-300 g) are anesthetized with inactin @100 mg/kg. Bile ducts are cannulated with a 10″ length of PE10 tubing. The small intestine is exposed and laid out on a gauze pad. A canulae (⅛″ luer lock, tapered female adapter) is inserted at 12 cm from the junction of the small intestine and the cecum. A slit is cut at 4 cm from this same junction (utilizing a 8 cm length of ileum). 20 ml of warm Dulbecco's phosphate buffered saline, pH 6.5 (PBS) is used to flush out the intestine segment. The distal opening is cannulated with a 20 cm length of silicone tubing (0.02″ I.D.×0.037″ O.D.). The proximal cannulae is hooked up to a peristaltic pump and the intestine is washed for 20 min with warm PBS at 0.25 ml/min. Temperature of the gut segment is monitored continuously. At the start of the experiment, 2.0 ml of control sample ([^14C]-taurocholate @ 0.05 mi/ml with 5 mM cold taurocholate) is loaded into the gut segment with a 3 ml syringe and bile sample collection is begun. Control sample is infused at a rate of 0.25 ml/min for 21 min. Bile samples fractions are collected every 3 minute for the first 27 minutes of the procedure. After the 21 min of sample infusion, the ileal loop is washed out with 20 ml of warm PBS (using a 30 ml syringe), and then the loop is washed out for 21 min with warm PBS at 0.25 ml/min. A second perfusion is initiated as described above but this with test compound being administered as well (21 min administration followed by 21 min of wash out) and bile sampled every 3 min for the first 27 min. If necessary, a third perfusion is performed as above that typically contains the control sample.

[8] = system: Hepatic HMG CoA-Reductase; experiment: Hepatic HMG CoA-reductase activity, rat Alzet minipump model; format: in vivo; conditions: 20 MPL/DAY, mean (SEM)
Description: Measurement of Hepatic HMG CoA-Reductase Activity (HMG COA)
Hepatic microsomes were prepared by homogenizing liver samples in a phosphate/sucrose buffer, followed by centrifugal separation. The final pelleted material was resuspended in buffer and an aliquot was assayed for HMG CoA reductase activity by incubating for 60 minutes at 37° C. in the presence of ^14C-HMG-CoA (Dupont-NEN). The reaction was stopped by adding 6N HCl followed by centrifugation. An aliquot of the supernatant was separated, by thin-layer chromatography, and the spot corresponding to the enzyme product was scraped off the plate, extracted and radioactivity was determined by scintillation counting. (Reference: Akerlund, J. and Bjorkhem, I. (1990) J. Lipid Res. 31, 2159).

Fecal Bile Acid [9] = experiment: Fecal bile acid concentration (FBA), rat Alzet minipump model; format: in vivo; conditions: 20 MPL/DAY, mean (SEM)
Description: as §3, §4

Serum Cholesterol = experiment: Determination of serum cholesterol, rat Alzet minipump model; format: in vivo; conditions: 20 MPL/DAY, mean (SEM)
Description: Determination of Serum Cholesterol (SER.CHOL, HDL-CHOL, TGI and VLDL+LDL)
Total serum cholesterol (SER.CHOL) was measured enzymatically using a commercial kit from Wako Fine Chemicals (Richmond, Va.); Cholesterol C11, Catalog No. 276-64909. HDL cholesterol (HDL-CHOL) was assayed using this same kit after precipitation of VLDL and LDL with Sigma Chemical Co. HDL Cholesterol reagent, Catalog No. 352-3 (dextran sulfate method). Total serum triglycerides (blanked) (TGI) were assayed enzymatically with Sigma Chemical Co. GPO-Trinder, Catalog No. 337-B. VLDL and LDL (VLDL+LDL) cholesterol concentrations were calculated as the difference between total and HDL cholesterol.

LIVER WEIGHT (G) [3]: 14.6 (0.4) G | WEIGHT (G) day 1 [3]: 307 (3) G | WEIGHT (G) day 8 [3]: 310 (4) *A, B G | LIVER WEIGHT (G) [5]: 5.8 (0.2) G | WEIGHT (G) day 1 [5]: 117 (5) G | WEIGHT (G) day 14 [5]: 132 (4) G | IC50 [6]: 0.8 µM | EC50 ([7]; rat ileal loop, read-out: TC-uptake Ileal Loop EC(50)): 20 µM
SMILES: CCCC[C@]1(CC)CS(=O)(=O)c2cc(OC)ccc2[C@@H](c2ccccc2)[C@H]1O [Example 25, (3α,4β,5β) 3-Butyl-3-ethyl-4-hydroxy-8-methoxy-5-phenyl-2,3,4,5-tetrahydrobenzothiepine-1,1-dioxide]
HEPATIC CHOL (mg/g) (Hepatic Cholesterol [1]): 1.9 (0.1) mg/g | HEPATIC CHOL (mg/g) (Hepatic Cholesterol [2]): 2.0 (0.03) mg/g | FBA (mM/24 H/100 g) (Fecal Bile Acid [4]): 11.9 (0.5) mM/24 H/100 g | activity at 100 µM ([7]; Rattus norvegicus, read-out: % of Control Transport of TC in Rat Ileum @ 0.1 mM): 26% | HMG COA pm/mg/min [8]: 318.0 (40.7) *A, B pm/mg/min | FBA (mM/24 H/100 g) (Fecal Bile Acid [9]): 39.1 (4.5) *A, B mM/24 H/100 g | SER.CHOL (mg %) (Serum Cholesterol): 84 (3) mg %
